Measurements reported in patent US20230131376A1, “ADJUVANT-ANTIBIOTIC COMBINATION AGAINST GRAM-NEGATIVE BACTERIA” (University of Notre Dame du Lac, priority 2020, published 2023).

What was measured:
[1] = system: mcr-1 plasmid containing E. coli, K. pneumoniae, and A. baumannii; experiment: Colistin potentiation stated for all three mcr-1 strains together
[2] = system: several MDR Gram-negative bacterial strains; conditions: cited from earlier work
[3] = system: K. pneumoniae B9; experiment: Colistin potentiation, chromosomally colistin resistant K. pneumoniae B9; format: cell-based; conditions: K. pneumoniae B9
From the text: (§1) Broth microdilution method for antibiotic potentiation.

[4] = system: K. pneumoniae C3; experiment: Colistin potentiation, chromosomally colistin resistant K. pneumoniae C3; format: cell-based
From the text: as §1

[5] = system: A. baumannii 4106; experiment: Colistin potentiation, chromosomally colistin resistant A. baumannii 4106; format: cell-based
From the text: as §1

[6] = system: A. baumannii 3941; experiment: Colistin potentiation, chromosomally colistin resistant A. baumannii 3941; format: cell-based
From the text: as §1

[7] = system: 4T1 cells; experiment: MTT cell viability assay; format: cell-based, mouse; conditions: 4T1 cells, 18 h, concentration giving 50% cell viability; for CT50, Compound + colistin: with 1 μg/mL colistin; for CT50, Compound alone: without colistin
Protocol: MTT Cell Viability Assay. 4T1 cells (ATCC Manassas, Va.) were plated at a density of 1×10^4 cells/well in 96-well plates. (Roswell Park Memorial Institute Media 1640, Gibco, Gaithersburg, Md.) supplemented with 10% Fetal Bovine Serum (Gibco), 2 mM GlutaMAX (Gibco) and 50 μM 2-mercaptoethanol (Sigma Aldrich St. Louis, Mo.) and incubated at 37° C. under a 5% CO2 atmosphere in the dark for 18 h. Cell cultures were treated with serial dilutions of compounds in the presence or absence of 1 μg/mL colistin (3 replicates per condition) and incubated for an additional 18 hours. The following control conditions were used: media only (blank), 1% Triton X100 (0% cell viability), 0.5% DMSO (100% cell viability). Each condition was then treated with 10% volume of a 5 mg/mL solution of 3-(4,5-dimethylthiazol-2-yl)-2,5-diphenyltetrazolium bromide (MTT) (Sigma Aldrich) in sterile filtered 1× phosphate buffered saline (PBS) and incubated for 2 h. at 37° C. in 5% CO2, after which the media was aspirated and the resulting formazan crystals were resuspended in 100 μL acidified (4 mM HCl) isopropanol. The 96-well plate was then read at 540 nm on a FLUOstar Optima (BMG Labtech Cary, N.C.) microplate reader. Cell viability was calculated as a percentage using the two previously mentioned controls.

[8] = adjuvant at 15 μM, susceptibility breakpoint 2 μg/mL

With `O=C(NCCc1c[nH]c2ccccc12)c1ccc(Cl)c(Cl)c1` [Compound 1d, N-(2-(1H-indol-3-yl)ethyl)-3,4-dichlorobenzamide] the “colistin MIC with adjuvant, all three mcr-1 strains” value ([1]; adjuvant at 50 μM) was 2 µg/mL and the “fold reduction of colistin MIC, all mcr-1 containing strains” value ([1]; adjuvant at 50 μM) was 4-8 fold.

For `O=C(NCCc1c[nH]c2ccccc12)c1cc(Cl)c(Cl)[nH]1` [Compound 2], the “ability to potentiate colistin activity” value [2] is given as “demonstrated the ability to potentiate colistin activity”.

For `CC(C)n1cc(-c2cccc(NC(=O)Nc3cc(Br)cc(Br)c3)c2)nc1N` [Compound 3], the “ability to potentiate colistin activity” value [2] is given as “demonstrated the ability to potentiate colistin activity”.

For `CCNc1nccc(-c2c[nH]c3ccc(Br)cc23)n1` [Compound 4], the “ability to potentiate colistin activity” value [2] is listed as “demonstrated the ability to potentiate colistin activity”.

With `O=C(NCCc1c[nH]c2ccccc12)Nc1cc(Br)cc(Br)c1` [Compound 8b, 1-(2-(1H-indol-3-yl)ethyl)-3-(3,5-dibromophenyl)urea] the “colistin MIC with adjuvant” value ([3]; adjuvant at 7.5 μM) was 4 µg/mL, the “colistin MIC with adjuvant” value ([3]; adjuvant at 8 μM) was 32 µg/mL and the “colistin MIC with adjuvant” value ([3]; adjuvant at 10 μM) was 1 µg/mL. The “colistin MIC with adjuvant” value ([3]; adjuvant at 15 μM) was 0.5 µg/mL, the “colistin MIC with adjuvant” value ([4]; adjuvant at 10 μM) was 8 µg/mL and the “colistin MIC with adjuvant” value ([4]; adjuvant at 15 μM) was 4 µg/mL. For the same compound, the “colistin MIC with adjuvant” value ([4]; adjuvant at 20 μM) was 2 µg/mL, the “colistin MIC with adjuvant” value ([5]; adjuvant at 10 μM) was 8 µg/mL and the “colistin MIC with adjuvant” value ([5]; adjuvant at 15 μM) was 4 µg/mL. For the same compound, the “colistin MIC with adjuvant” value ([5]; adjuvant at 20 μM) was 4 µg/mL, the “colistin MIC with adjuvant, all three mcr-1 strains” value [1, 8] was “lowered the colistin MIC to the susceptibility breakpoint” and the “colistin MIC with adjuvant” value ([6]; adjuvant at 10 μM) was 16 µg/mL. For the same compound, the “colistin MIC with adjuvant” value ([6]; adjuvant at 15 μM) was 8 µg/mL, the “colistin MIC with adjuvant” value ([6]; adjuvant at 20 μM) was 8 µg/mL and the “CT50, Compound + colistin” value [7] was 64.2 µM. The “CT50, Compound alone” value [7] was 86.2 µM.

With `O=C(NCCc1c[nH]c2ccccc12)Nc1cc(C(F)(F)F)cc(C(F)(F)F)c1` [Compound 8c, 1-(2-(1H-indol-3-yl)ethyl)-3-(3,5-bis(trifluoromethyl)phenyl)urea] the “colistin MIC with adjuvant, all three mcr-1 strains” value [1, 8] was “lowered the colistin MIC to the susceptibility breakpoint”, the “CT50, Compound + colistin” value [7] was 61.8 µM and the “CT50, Compound alone” value [7] was 60.5 µM.

With `O=C(NCCc1c[nH]c2ccccc12)Nc1ccc(Cl)c(Cl)c1` [Compound 8d, 1-(2-(1H-indol-3-yl)ethyl)-3-(3,4-dichlorophenyl)urea] the “CT50, Compound + colistin” value [7] was 104.8 µM and the “CT50, Compound alone” value [7] was 117.3 µM.

With `O=C(NCCc1c[nH]c2ccccc12)Nc1cc(Cl)c(Br)c(Cl)c1` [Compound 8e, 1-(2-(1H-indol-3-yl)ethyl)-3-(4-bromo-3,5-dichlorophenyl)urea] the “colistin MIC with adjuvant, all three mcr-1 strains” value [1, 8] was “lowered the colistin MIC to the susceptibility breakpoint”.

In the case of `O=C(NCCc1c[nH]c2ccc(Br)cc12)Nc1ccc(Cl)c(Cl)c1` [Compound 9d, 1-(2-(5-bromo-1H-indol-3-yl)ethyl)-3-(3,4-dichlorophenyl)urea], the “colistin MIC with adjuvant” value ([3]; adjuvant at 5 μM) is reported as 8 µg/mL, the “colistin MIC with adjuvant” value ([3]; adjuvant at 7.5 μM) is reported as 2 µg/mL and the “colistin MIC with adjuvant” value ([3]; adjuvant at 10 μM) is reported as 1 µg/mL. For the same compound, the “colistin MIC with adjuvant” value ([3]; adjuvant at 15 μM) was 0.5 µg/mL, the “colistin MIC with adjuvant” value ([4]; adjuvant at 10 μM) was 4 µg/mL and the “colistin MIC with adjuvant” value ([4]; adjuvant at 15 μM) was 2 µg/mL. The “colistin MIC with adjuvant” value ([4]; adjuvant at 20 μM) was 1 µg/mL, the “colistin MIC with adjuvant” value ([5]; adjuvant at 10 μM) was 4 µg/mL and the “colistin MIC with adjuvant” value ([5]; adjuvant at 15 μM) was 2 µg/mL. The “colistin MIC with adjuvant” value ([5]; adjuvant at 20 μM) was 2 µg/mL, the “colistin MIC with adjuvant” value ([6]; adjuvant at 10 μM) was 8 µg/mL and the “colistin MIC with adjuvant” value ([6]; adjuvant at 15 μM) was 4 µg/mL. The “colistin MIC with adjuvant” value ([6]; adjuvant at 20 μM) was 2 µg/mL, the “CT50, Compound + colistin” value [7] was 84.6 µM and the “CT50, Compound alone” value [7] was 125.5 µM.

With `CC(C)n1cc(-c2cccc(NC(=O)Nc3cc(Cl)c(Br)c(Cl)c3)c2)nc1N` [Compound 14, reference compound] the “CT50, Compound + colistin” value [7] was 15.6 µM and the “CT50, Compound alone” value [7] was 23.2 µM.
